The test system of the assay is BDF1 mice, P388 leukemia ip, median survival T/C. The assay is described as follows: NCI In Vivo Anticancer Drug Screen. Data for tumor model P388 Leukemia (intraperitoneal) in B6D2F1 (BDF1) mice. Particulars: endpoint: median survival time, higher = longer survival. The method, boiled down: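 Compound-treated tumour-bearing mice were compared with vehicle-treated controls. Survival was recorded, and the value is the treated-group measurement divided by the control-group measurement (T/C).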

The mark [1] stands for this setting: dose: 50.0 mg/kg/injection, schedule: Q01DX009 (ip), vehicle: saline with Tween-80.
The mark [2] stands for this setting: dose: 100.0 mg/kg/injection, schedule: Q01DX009 (ip), vehicle: saline with Tween-80.
Setting [3] is: dose: 200.0 mg/kg/injection, schedule: Q01DX009 (ip), vehicle: saline with Tween-80.
The mark [4] stands for this setting: dose: 50.0 mg/kg/injection, schedule: Q04DX003 (ip), vehicle: Klucel (hydroxypropylcellulose) (HPC).
[5] abbreviates: dose: 100.0 mg/kg/injection, schedule: Q04DX003 (ip), vehicle: saline with Tween-80.
[6] abbreviates: dose: 200.0 mg/kg/injection, schedule: Q04DX003 (ip), vehicle: saline with Tween-80.
Setting [7] is: dose: 100.0 mg/kg/injection, schedule: Q04DX003 (ip), vehicle: Klucel (hydroxypropylcellulose) (HPC).
Setting [8] is: dose: 200.0 mg/kg/injection, schedule: Q04DX003 (ip), vehicle: Klucel (hydroxypropylcellulose) (HPC).
Setting [9] is: dose: 200.0 mg/kg/injection, schedule: Q01DX009 (ip), vehicle: Klucel (hydroxypropylcellulose) (HPC).

Values joined by “and” are separate entries in the source; they are usually repeats but may differ in a detail not shown here. Equal values may be shown once. Toxic doses and inconclusive results are not listed.

`CS(=O)(=O)OCCN(CCOS(C)(=O)=O)c1cccc(Cl)c1`: the T/C (dose: 1.0 mg/kg/injection, schedule: Q04DX003 (ip), vehicle: saline with Tween-80) is 100 % of control; the T/C (dose: 2.0 mg/kg/injection, schedule: Q04DX003 (ip), vehicle: saline with Tween-80) was 100 % of control; the T/C (dose: 4.0 mg/kg/injection, schedule: Q04DX003 (ip), vehicle: saline with Tween-80) was 172 % of control; the T/C (dose: 6.25 mg/kg/injection, schedule: Q01DX009 (ip), vehicle: other) was 163 % of control; the T/C (dose: 6.25 mg/kg/injection, schedule: Q04DX003 (ip), vehicle: saline) is 110 % of control; the T/C (dose: 8.0 mg/kg/injection, schedule: Q04DX003 (ip), vehicle: saline with Tween-80) was 177 % of control. The T/C reads like this: (dose: 12.5 mg/kg/injection, schedule: Q01DX009 (ip), vehicle: Klucel (hydroxypropylcellulose) (HPC)) 168 % of control; (dose: 12.5 mg/kg/injection, schedule: Q01DX009 (ip), vehicle: other) 200 % of control; (dose: 18.7 mg/kg/injection, schedule: Q01DX009 (ip), vehicle: Klucel (hydroxypropylcellulose) (HPC)) 186 % of control; (dose: 22.0 mg/kg/injection, schedule: Q04DX003 (ip), vehicle: other) 240 % of control; (dose: 25.0 mg/kg/injection, schedule: Q01DX009 (ip), vehicle: other) 95 % of control; (dose: 50.0 mg/kg/injection, schedule: Q04DX003 (ip), vehicle: other) 90 % of control. Besides, the T/C (dose: 75.0 mg/kg/injection, schedule: Q04DX003 (ip), vehicle: other) is 90 % of control.
With `Nc1cc(=O)[nH]n1-c1ccccc1`, the T/C runs as follows: under setting [1], 101 % of control; under setting [2], 103 % of control; under setting [3], 98 % of control.
Consider `CN1CCC(CN2c3ccccc3Sc3ccccc32)CC1`, for which the T/C is 105 % of control (dose: 1.56 mg/kg/injection, schedule: Q01DX009 (ip), vehicle: Klucel (hydroxypropylcellulose) (HPC)); 86 % of control and 105 % of control (dose: 3.12 mg/kg/injection, schedule: Q01DX009 (ip), vehicle: Klucel (hydroxypropylcellulose) (HPC)); 95 % of control (dose: 6.25 mg/kg/injection, schedule: Q01DX009 (ip), vehicle: Klucel (hydroxypropylcellulose) (HPC)); 95 % of control (dose: 8.75 mg/kg/injection, schedule: Q04DX003 (ip), vehicle: Klucel (hydroxypropylcellulose) (HPC)); 95 % of control (dose: 17.5 mg/kg/injection, schedule: Q04DX003 (ip), vehicle: Klucel (hydroxypropylcellulose) (HPC)); 109 % of control (dose: 35.0 mg/kg/injection, schedule: Q04DX003 (ip), vehicle: Klucel (hydroxypropylcellulose) (HPC)). The T/C was 110 % of control under setting [4]; 120 % of control (dose: 80.0 mg/kg/injection, schedule: Q04DX003 (ip), vehicle: Klucel (hydroxypropylcellulose) (HPC)); 118 % of control under setting [5]; 86 % of control under setting [6].
Regarding `O=C1NC(=O)C2(CCc3ccccc3C2)N1` (stereo unspecified), the T/C by setting is: (dose: 25.0 mg/kg/injection, schedule: Q01DX009 (ip), vehicle: saline with Tween-80) 97 % of control; under setting [1], 99 % of control and 107 % of control; under setting [2], 96 % of control and 104 % of control; under setting [3], 96 % of control and 97 % of control; (dose: 400.0 mg/kg/injection, schedule: Q01DX009 (ip), vehicle: saline with Tween-80) 92 % of control.
As for `O=C1SCCC1CO` (stereo unspecified), the T/C under setting [5] is 114 % of control.
Turning to `O=C(c1ccccc1)c1cccc(Cl)c1`, the T/C was 104 % of control under setting [4], 90 % of control under setting [7] and 104 % of control under setting [8].
On to `COc1ccc(C2NC(=S)NC3=C2CCCC3)cc1` (stereo unspecified), for which the T/C is, setting by setting: under setting [1], 96 % of control; under setting [2], 107 % of control; under setting [3], 98 % of control.
As for `O=CN(O)CC(=O)O.[Zn]`, the T/C runs as follows: (dose: 4.12 mg/kg/injection, schedule: Q01DX009 (ip), vehicle: saline) 118 % of control and 122 % of control; (dose: 6.25 mg/kg/injection, schedule: Q01DX009 (ip), vehicle: saline) 118 % of control and 122 % of control; (dose: 8.7 mg/kg/injection, schedule: Q04DX003 (ip), vehicle: saline) 104 % of control; (dose: 9.37 mg/kg/injection, schedule: Q01DX009 (ip), vehicle: saline) 118 % of control; (dose: 13.0 mg/kg/injection, schedule: Q04DX003 (ip), vehicle: saline) 113 % of control; (dose: 19.5 mg/kg/injection, schedule: Q04DX003 (ip), vehicle: saline) 113 % of control. Besides, the T/C (dose: 30.0 mg/kg/injection, schedule: Q04DX003 (ip), vehicle: saline) is 118 % of control.
Consider `CCc1ccc(C2=C(O)C(=O)C(c3ccccc3)=C(O)C2=O)cc1`, for which the T/C is 109 % of control (dose: 12.5 mg/kg/injection, schedule: Q01DX010 (ip), vehicle: saline) and 159 % of control (dose: 50.0 mg/kg/injection, schedule: Q01DX010 (ip), vehicle: saline).
With `O=C(CN1CCCCC1)Nc1nc(-c2ccc(Cl)cc2)cs1`, the T/C (dose: 100.0 mg/kg/injection, schedule: Q01DX005 (ip), vehicle: saline with Tween-80) is 91 % of control.
In the case of `Cc1c(Cl)cc(Cl)c(N)c1Cl`, the T/C under setting [6] was 100 % of control and the T/C (dose: 400.0 mg/kg/injection, schedule: Q04DX003 (ip), vehicle: saline with Tween-80) is 100 % of control.
Consider `COc1cc2c3c(c1)-c1c(ccc(OC)c1Oc1nnnn1-c1ccccc1)CC3N(C)CC2` (stereo unspecified), for which the T/C was 108 % of control (dose: 12.5 mg/kg/injection, schedule: Q04DX003 (ip), vehicle: saline); 115 % of control (dose: 25.0 mg/kg/injection, schedule: Q04DX003 (ip), vehicle: saline); 115 % of control (dose: 50.0 mg/kg/injection, schedule: Q04DX003 (ip), vehicle: saline); 108 % of control (dose: 100.0 mg/kg/injection, schedule: Q04DX003 (ip), vehicle: saline); 115 % of control (dose: 200.0 mg/kg/injection, schedule: Q04DX003 (ip), vehicle: saline).
On to `CC1(C)OC(=O)C(=Cc2c(Cl)cccc2Cl)C(=O)O1`, for which the T/C is, setting by setting: (dose: 100.0 mg/kg/injection, schedule: Q01DX001 (ip), vehicle: Klucel (hydroxypropylcellulose) (HPC)) 109 % of control; (dose: 100.0 mg/kg/injection, schedule: Q01DX009 (ip), vehicle: Klucel (hydroxypropylcellulose) (HPC)) 87 % of control; (dose: 200.0 mg/kg/injection, schedule: Q01DX001 (ip), vehicle: Klucel (hydroxypropylcellulose) (HPC)) 104 % of control; under setting [9], 104 % of control; (dose: 400.0 mg/kg/injection, schedule: Q01DX001 (ip), vehicle: Klucel (hydroxypropylcellulose) (HPC)) 109 % of control; (dose: 400.0 mg/kg/injection, schedule: Q01DX009 (ip), vehicle: Klucel (hydroxypropylcellulose) (HPC)) 100 % of control.
As for `CC(C)(C)OC(=O)NNC(=O)c1ccc([N+](=O)[O-])cc1`, the T/C runs as follows: (dose: 50.0 mg/kg/injection, schedule: Q01DX009 (ip), vehicle: Klucel (hydroxypropylcellulose) (HPC)) 90 % of control; under setting [9], 95 % of control.
`O=[N+]([O-])c1ccccc1S(=O)(=O)Oc1ccccc1`: the T/C is 100 % of control under setting [7]; 100 % of control under setting [8]; 100 % of control (dose: 400.0 mg/kg/injection, schedule: Q04DX003 (ip), vehicle: Klucel (hydroxypropylcellulose) (HPC)).

The values above are taken from PubChem BioAssay AID328 (DTP/NCI, 2004).
